Laboratory results as given in patent US20230085307A1, “PYRIDAZINONE COMPOUND AND HERBICIDE” (NISSAN CHEMICAL CORPORATION, priority 2019, published 2023).

Legend:
[1] = test system: wild oat; assay: Test Example 4: herbicidal effect by soil treatment (Table 19, symbol I); assay type: in vivo, wild oat (Avena fatua)
Method in brief: (§1)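 Step 1: sow seeds in sterilized diluvial soil, cover ~1.5 cm. Step 2: spray diluted emulsion onto soil surface at predetermined rate. Step 3: greenhouse, 25–30° C, three weeks. Step 4: grade effect on each plant by earlier criteria.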

[2] = test system: Japanese bulrush; assay: Test Example 2: herbicidal activity, application during weed generation under submerged conditions (Table 17, symbol B); assay type: in vivo, Japanese bulrush (Schoenoplectus juncoides); settings: application during weed generation, submerged conditions
Method in brief: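 Mixed weed seedlings in alluvial soil under a 4 cm water layer, greenhouse-grown at 25–30° C. Compound given as a diluted emulsion into the floodwater at the 1–2 leaf stage; response graded after three weeks.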

[3] = test system: windgrass; assay: Test Example 4: herbicidal effect by soil treatment (Table 19, symbol L); assay type: in vivo, windgrass (Apera spica-venti)
Method in brief: as §1

[4] = test system: green foxtail; assay: Test Example 4: herbicidal effect by soil treatment (Table 19, symbol G); assay type: in vivo, green foxtail (Setaria viridis)
Method in brief: as §1

[5] = test system: Italian ryegrass; assay: Test Example 4: herbicidal effect by soil treatment (Table 19, symbol K); assay type: in vivo, Italian ryegrass (Lolium multiflorum)
Method in brief: as §1

[6] = test system: Italian ryegrass; assay: Test Example 5: herbicidal effect by foliage application, plastic box (Table 20, symbol K); assay type: in vivo, Italian ryegrass (Lolium multiflorum); settings: foliage application, three weeks after application
Method in brief: (§2)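 Foliar spray test: emulsion formulation diluted in water to a set application rate, sprayed onto 14-day-old plants raised in diluvial soil at 25° C to 30° C under glass. Both herbicidal effect and crop effect rated visually three weeks later.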

[7] = test system: persian speedwell; assay: Test Example 4: herbicidal effect by soil treatment (Table 19, symbol R); assay type: in vivo, Persian speedwell (Veronica persica)
Method in brief: as §1

[8] = test system: Chinese sprangletop; assay: Test Example 3: herbicidal effect by foliage application, Wagner pot (Table 18, symbol D); assay type: in vivo, chinese sprangletop (Leptochloa chinensis)
Method in brief: (§3)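 Plants were sown in alluvial soil held under 0.1–0.5 cm standing water and grown 14 days in a greenhouse at 25–30 °C. An emulsifiable formulation, water-diluted to the set dose, was then sprayed onto the foliage, and effects were scored three weeks later using previously defined criteria.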

[9] = test system: oval-leafed pondweed; assay: Test Example 1: herbicidal activity, application before weed generation under submerged conditions (Table 16, symbol C); assay type: in vivo, oval-leafed pondweed (Monochoria vaginalis)
Method in brief: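 Alluvial soil was flooded to 4 cm depth, weed seeds were sown mixed and 2.5-leaf rice seedlings were transplanted. On sowing day, the compound's emulsion, diluted in water to a set dose, was applied to the water surface. Plants grew at 25–30 °C and were scored 0–5 after three weeks.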

[10] = test system: blackgrass; assay: Test Example 5: herbicidal effect by foliage application, plastic box (Table 20, symbol J); assay type: in vivo, blackgrass (Alopecurus myosuroides); settings: foliage application, three weeks after application
Method in brief: as §2

[11] = test system: velvetleaf; assay: Test Example 5: herbicidal effect by foliage application, plastic box (Table 20, symbol M); assay type: in vivo, velvetleaf (Abutilon theophrasti); settings: foliage application, three weeks after application
Method in brief: as §2

[12] = test system: lambsquarters; assay: Test Example 4: herbicidal effect by soil treatment (Table 19, symbol O); assay type: in vivo, lambsquarters (Chenopodium album)
Method in brief: as §1

[13] = test system: rice flat sedge; assay: Test Example 3: herbicidal effect by foliage application, Wagner pot (Table 18, symbol E); assay type: in vivo, rice flat sedge (Cyperus iria)
Method in brief: as §3

[14] = test system: velvetleaf; assay: Test Example 4: herbicidal effect by soil treatment (Table 19, symbol M); assay type: in vivo, velvetleaf (Abutilon theophrasti)
Method in brief: as §1

[15] = test system: chickweed; assay: Test Example 5: herbicidal effect by foliage application, plastic box (Table 20, symbol P); assay type: in vivo, common chickweed (Stellaria media); settings: foliage application, three weeks after application
Method in brief: as §2

[16] = test system: barnyard grass; assay: Test Example 5: herbicidal effect by foliage application, plastic box (Table 20, symbol H); assay type: in vivo, barnyard grass (Echinochloa crus-galli); settings: foliage application, three weeks after application
Method in brief: as §2

[17] = test system: redroot pigweed; assay: Test Example 4: herbicidal effect by soil treatment (Table 19, symbol N); assay type: in vivo, redroot pigweed (Amaranthus retroflexus)
Method in brief: as §1

[18] = amount of applied herbicide 320 g/ha
[19] = amount of applied herbicide 224 g/ha
[20] = amount of applied herbicide 304 g/ha

SMILES	I: wild oat, herbicidal effect grade [1, 18]	herbicidal effect rating, B: Japanese bulrush ([2]; AAH 320 g/ha)	L: windgrass, herbicidal effect grade [3, 18]	G: green foxtail, herbicidal effect grade [4, 18]	K: Italian ryegrass, herbicidal effect grade [5, 18]	K: Italian ryegrass, herbicidal effect grade ([6]; 320 g/ha)	R: persian speedwell, herbicidal effect grade [7, 18]	herbicidal effect on Chinese sprangletop (D) ([8]; 320 g/ha)	Herbicidal effect, C: oval-leafed pondweed [9, 18]	J: blackgrass, herbicidal effect grade ([10]; 320 g/ha)	M: velvetleaf, herbicidal effect grade ([11]; 320 g/ha)	O: lambsquarters, herbicidal effect grade [12, 18]	herbicidal effect on rice flat sedge (E) ([13]; 320 g/ha)	M: velvetleaf, herbicidal effect grade [14, 18]	P: chickweed, herbicidal effect grade ([15]; 320 g/ha)	H: barnyard grass, herbicidal effect grade ([16]; 320 g/ha)	N: redroot pigweed, herbicidal effect grade [17, 18]	also measured
CCCC(=O)Oc1c(C)nn(C)c(=O)c1-c1c(-c2ccccc2OCC)sc2cc(Cl)ccc12 [3-040]	0 (Herbicidal rate of 5% or less (almost no effect))	2 (Herbicidal rate of 20% or more and less than 40%)	5 (Herbicidal rate of 90% or more (almost completely withered))	2 (Herbicidal rate of 20% or more and less than 40%)	0 (Herbicidal rate of 5% or less (almost no effect))	0 (Herbicidal rate of 5% or less (almost no effect))	4 (Herbicidal rate of 70% or more and less than 90%)	0 (Herbicidal rate of 5% or less (almost no effect))	2 (Herbicidal rate of 20% or more and less than 40%)	5 (Herbicidal rate of 90% or more (almost completely withered))	4 (Herbicidal rate of 70% or more and less than 90%)	3 (Herbicidal rate of 40% or more and less than 70%)	5 (Herbicidal rate of 90% or more (almost completely withered))	3 (Herbicidal rate of 40% or more and less than 70%)	5 (Herbicidal rate of 90% or more (almost completely withered))	5 (Herbicidal rate of 90% or more (almost completely withered))	4 (Herbicidal rate of 70% or more and less than 90%)	–
CCCC(=O)Oc1c(C)nn(C)c(=O)c1-c1c(-c2ccccc2OC)sc2cc(C)ccc12 [3-050]	–	–	–	–	–	–	–	–	–	–	–	–	–	–	–	–	–	I: wild oat, herbicidal effect grade [1, 19]: 0 (Herbicidal rate of 5% or less (almost no effect)); herbicidal effect rating, B: Japanese bulrush ([2]; AAH 224 g/ha): 1 (Herbicidal rate of 5% or more and less than 20%); L: windgrass, herbicidal effect grade [3, 19]: 2 (Herbicidal rate of 20% or more and less than 40%); G: green foxtail, herbicidal effect grade [4, 19]: 0 (Herbicidal rate of 5% or less (almost no effect)); K: Italian ryegrass, herbicidal effect grade [5, 19]: 1 (Herbicidal rate of 5% or more and less than 20%); K: Italian ryegrass, herbicidal effect grade ([6]; 224 g/ha): 4 (Herbicidal rate of 70% or more and less than 90%); R: persian speedwell, herbicidal effect grade [7, 19]: 1 (Herbicidal rate of 5% or more and less than 20%); herbicidal effect on Chinese sprangletop (D) ([8]; 224 g/ha): 3 (Herbicidal rate of 40% or more and less than 70%); Herbicidal effect, C: oval-leafed pondweed [9, 19]: 1 (Herbicidal rate of 5% or more and less than 20%); J: blackgrass, herbicidal effect grade ([10]; 224 g/ha): 4 (Herbicidal rate of 70% or more and less than 90%); M: velvetleaf, herbicidal effect grade ([11]; 224 g/ha): 4 (Herbicidal rate of 70% or more and less than 90%); O: lambsquarters, herbicidal effect grade [12, 19]: 0 (Herbicidal rate of 5% or less (almost no effect)); herbicidal effect on rice flat sedge (E) ([13]; 224 g/ha): 3 (Herbicidal rate of 40% or more and less than 70%); M: velvetleaf, herbicidal effect grade [14, 19]: 0 (Herbicidal rate of 5% or less (almost no effect)); P: chickweed, herbicidal effect grade ([15]; 224 g/ha): 5 (Herbicidal rate of 90% or more (almost completely withered)); H: barnyard grass, herbicidal effect grade ([16]; 224 g/ha): 4 (Herbicidal rate of 70% or more and less than 90%); N: redroot pigweed, herbicidal effect grade [17, 19]: 0 (Herbicidal rate of 5% or less (almost no effect))
CCCC(=O)Oc1c(C)nn(C)c(=O)c1-c1c(-c2ccccc2OCC)sc2cc(C)ccc12 [3-054]	–	–	–	–	–	–	–	–	–	–	–	–	–	–	–	–	–	I: wild oat, herbicidal effect grade [1, 20]: 1 (Herbicidal rate of 5% or more and less than 20%); herbicidal effect rating, B: Japanese bulrush ([2]; AAH 304 g/ha): 3 (Herbicidal rate of 40% or more and less than 70%); L: windgrass, herbicidal effect grade [3, 20]: 3 (Herbicidal rate of 40% or more and less than 70%); G: green foxtail, herbicidal effect grade [4, 20]: 3 (Herbicidal rate of 40% or more and less than 70%); K: Italian ryegrass, herbicidal effect grade [5, 20]: 3 (Herbicidal rate of 40% or more and less than 70%); K: Italian ryegrass, herbicidal effect grade ([6]; 304 g/ha): 5 (Herbicidal rate of 90% or more (almost completely withered)); R: persian speedwell, herbicidal effect grade [7, 20]: 3 (Herbicidal rate of 40% or more and less than 70%); herbicidal effect on Chinese sprangletop (D) ([8]; 304 g/ha): 3 (Herbicidal rate of 40% or more and less than 70%); Herbicidal effect, C: oval-leafed pondweed [9, 20]: 4 (Herbicidal rate of 70% or more and less than 90%); J: blackgrass, herbicidal effect grade ([10]; 304 g/ha): 4 (Herbicidal rate of 70% or more and less than 90%); M: velvetleaf, herbicidal effect grade ([11]; 304 g/ha): 4 (Herbicidal rate of 70% or more and less than 90%); O: lambsquarters, herbicidal effect grade [12, 20]: 0 (Herbicidal rate of 5% or less (almost no effect)); herbicidal effect on rice flat sedge (E) ([13]; 304 g/ha): 5 (Herbicidal rate of 90% or more (almost completely withered)); M: velvetleaf, herbicidal effect grade [14, 20]: 0 (Herbicidal rate of 5% or less (almost no effect)); P: chickweed, herbicidal effect grade ([15]; 304 g/ha): 5 (Herbicidal rate of 90% or more (almost completely withered)); H: barnyard grass, herbicidal effect grade ([16]; 304 g/ha): 4 (Herbicidal rate of 70% or more and less than 90%); N: redroot pigweed, herbicidal effect grade [17, 20]: 1 (Herbicidal rate of 5% or more and less than 20%)
COc1cc(F)ccc1-c1sc2cc(C)ccc2c1-c1c(O)c(C)nn(C)c1=O [3-055]	3 (Herbicidal rate of 40% or more and less than 70%)	1 (Herbicidal rate of 5% or more and less than 20%)	2 (Herbicidal rate of 20% or more and less than 40%)	0 (Herbicidal rate of 5% or less (almost no effect))	0 (Herbicidal rate of 5% or less (almost no effect))	5 (Herbicidal rate of 90% or more (almost completely withered))	4 (Herbicidal rate of 70% or more and less than 90%)	4 (Herbicidal rate of 70% or more and less than 90%)	3 (Herbicidal rate of 40% or more and less than 70%)	5 (Herbicidal rate of 90% or more (almost completely withered))	5 (Herbicidal rate of 90% or more (almost completely withered))	0 (Herbicidal rate of 5% or less (almost no effect))	5 (Herbicidal rate of 90% or more (almost completely withered))	0 (Herbicidal rate of 5% or less (almost no effect))	5 (Herbicidal rate of 90% or more (almost completely withered))	4 (Herbicidal rate of 70% or more and less than 90%)	0 (Herbicidal rate of 5% or less (almost no effect))	–
CCCC(=O)Oc1c(C)nn(C)c(=O)c1-c1c(-c2ccccc2OCC)sc2cc(OC)ccc12 [3-071]	3 (Herbicidal rate of 40% or more and less than 70%)	5 (Herbicidal rate of 90% or more (almost completely withered))	4 (Herbicidal rate of 70% or more and less than 90%)	4 (Herbicidal rate of 70% or more and less than 90%)	2 (Herbicidal rate of 20% or more and less than 40%)	4 (Herbicidal rate of 70% or more and less than 90%)	5 (Herbicidal rate of 90% or more (almost completely withered))	5 (Herbicidal rate of 90% or more (almost completely withered))	5 (Herbicidal rate of 90% or more (almost completely withered))	5 (Herbicidal rate of 90% or more (almost completely withered))	5 (Herbicidal rate of 90% or more (almost completely withered))	3 (Herbicidal rate of 40% or more and less than 70%)	5 (Herbicidal rate of 90% or more (almost completely withered))	1 (Herbicidal rate of 5% or more and less than 20%)	5 (Herbicidal rate of 90% or more (almost completely withered))	5 (Herbicidal rate of 90% or more (almost completely withered))	4 (Herbicidal rate of 70% or more and less than 90%)	–
